From patent publication US7247615B2, “Peptide agonists of prostate-specific antigen and uses therefor” (priority 2001, dated 2007)

Tests used:
HLA-A2 [1] = molecular target: T1, HLA-A2 (Homo sapiens, UniProt P04439, D140Y/D185E/D98H/E176V/E277Q/G131W/G231S/I119V/I121R/I166T/I218V/L300P/L318F/N151K/N90K/P208A/P217A/Q86G/Q94H/R138H/R169H/T345S); assay: Peptide binding to HLA-A2 on T2A2 cells (flow cytometry)
T1 construct: endogenous in cells; host or cells: T2A2 / 174CEM-T2 (T2) transport deletion mutant cell line
Method: Single-color flow cytometric analysis. The method for single-color flow cytometric analysis was described previously (F. Guadagni et al., 1990, Cancer Res. 50:6248–6255). Briefly, cells were washed three times with cold Ca^2+ and Mg^2+-free DPBS and then stained for 1 h with mAb against HLA-A2 (A2,69, One Lambda, Inc., Canoga Park, Calif.), using 10 μg of the 1× working dilution per 10^6 cells. Mineral oil plasmacytoma-104E (Cappel/Organon Teknika Corp., West Chester, Pa.) was used as an isotype control. The cells were washed three times and incubated with a 1:100 dilution of fluorescein isothiocyanate (FITC)-labeled goat anti-mouse immunoglobulin (IgG) (Kirkegaard and Perry Laboratories, Gaithersburg, Md.). The cells were immediately analyzed using a Becton Dickinson FACScan equipped with a blue laser with an excitation of […] at 488 nm. Data were gathered from 10,000 live cells, stored and used to generate results.
Peptide Binding to HLA-A2. […] Briefly, 1×10^6 cells in serum-free Iscove's modified Dulbecco's complete medium were incubated with peptides at a concentration of 50 μg/ml in 24 well culture plates at 37° C. in 5% CO2. Flow cytometry for peptide binding was performed using T2 cells and single-color analysis. After cells were washed three times in DPBS, as described above, they were incubated for 1 h with HLA-A2 specific MAb (One Lambda, Inc.) using 10 μg of a 1× working dilution per 10^6 cells. UPC-10 (Cappel/Organon Teknika) was used as isotype control. The cells were washed three times and incubated with 1:100 dilution of FITC-labeled anti-mouse IgG (Becton Dickinson). Analysis was conducted with the FACScan, as described above. Cells were maintained on ice during all cell preparation and staining.
The four analogs were then tested for binding to the HLA-A2 positive T2A2 cells as described in the Examples section. The NCA peptide was previously shown to not bind to HLA-A2, and was used as a negative […] control. Peptides were added to T2A2 cells at concentrations of 0 to 50 μg/ml.

HLA-A2 [2] = molecular target: T1, HLA-A2; assay: Stability of peptide-HLA-A2 complex on T2A2 cells (brefeldin A); assay type: binding; conditions: 50 μg/ml overnight, 8-h observation period, FIG. 2
Method: FIG. 2. Comparison of the stability of the complex of the PSA-3 or PSA-3A peptide with HLA-A2. T2A2 cells were incubated with PSA-3 (open squares) or PSA-3A (closed squares) peptide at a concentration of 50 μg/ml overnight and then washed free of unbound peptide and incubated with brefeldin A to block delivery of new class I molecules to cell surface. At indicated times, cells were stained for the presence of surface peptide-HLA-A2 complexes. Results are expressed in relative % binding as compared to 100% binding at time zero.
Studies were then undertaken to examine the stability of the peptideMHC complex for peptides PSA-3 and PSA-3A. Peptides were incubated with T2A2 cells overnight, washed free of unbound peptide and incubated with brefeldin-A to block delivery of new class I molecules to the cell surface. At various time points, cells were analyzed for the presence of peptide-HLA-A2 complexes. […] Thus, both the ability of the peptide to bind MHC (FIGS. 1A–1B) and the stability (FIG. 2), i.e., avidity of the peptide-MHC complex, are greater for the PSA-3A peptide than the native PSA-3 peptide.

DCs = assay: IL-12 production by peptide-pulsed DCs in the presence of T cells; assay type: cell-based, human
Method: It has been previously shown that the activation of T cells by peptidepulsed DCs is related to the level of IL-12 production by the DCs. Studies were therefore conducted to determine the levels of IL-12 production by DCs pulsed with PSA-3 and PSA-3A peptides in the presence of T cells. […] When DCs pulsed with the PSA3A peptide were incubated with both T cell lines, the DCs incubated with the T-PSA-3A line again produced higher levels of IL-12 than those peptide-pulsed DCs incubated with the T cell line T-PSA-3 (Table 3).

VLSNDVCAQV (SEQ ID NO:3) [PSA-3A]
Binding to HLA-A2 at lower peptide concentrations (HLA-A2 [1]; FIG. 1B): clearly bound higher levels of HLA-A2 than PSA-3
Binding to HLA-A2 (relative fluorescence, MFI) (HLA-A2 [1]; peptide 0 to 50 μg/ml, FIG. 1A): higher levels than PSA-3
Stability of peptide-HLA-A2 complexes (HLA-A2 [2]): more stable than PSA-3 complexes
IL-12 PRODUCTION (DCs; APC DC, T cell line T-PSA-3, peptide 25 μg/ml, 10:1, 24 h, IVS-4): 6.0 pg/ml/5 × 10^5 DC
IL-12 PRODUCTION (DCs; APC DC, T cell line T-PSA-3A, peptide 25 μg/ml, 10:1, 24 h, IVS-4): 27.5 pg/ml/5 × 10^5 DC
IL-12 PRODUCTION (DCs; no APC, T cell line T-PSA-3, peptide 25 μg/ml, 24 h): <0.6 pg/ml/5 × 10^5 DC
IL-12 PRODUCTION (DCs; no APC, T cell line T-PSA-3A, peptide 25 μg/ml, 24 h): <0.6 pg/ml/5 × 10^5 DC
